Results as given in ChEMBL document CHEMBL3507680, “University of Dundee, Gates Library screen for HepG2 cell viability”.

Assay: Human HepG2 cell viability assay in 384 well format
Assay type: toxicity, cell-based
Set-up: dose 125 nL, time 70.5 hour; concentration not given beside the values
Conditions: HepG2 cells, read-out: Inhibition

SMILES | cytotoxicity at 70.5 h
Cc1cc(CN2C[C@@H]3COC[C@]3(CNC(=O)c3ccco3)C2)no1 | -7.96%
CCCc1cc(=O)n(CC(=O)NCCOC)c(-n2nc(C)cc2C)n1 | -0.382%
CCN(CC)C(=O)C1CCC2(CCNCC2)CO1 (configuration not stated) | -14.2%
CC1COC2(CCN(C(=O)c3ncoc3C(C)C)CC2)O1 (configuration not stated) | 11.1%
CC(C)COC(=O)N1CC(=O)N(Cc2ccco2)CC(O)C1 (configuration not stated) | -3.84%
CCN(C(c1cccnc1)c1ccc2c(c1)CCC2)S(C)(=O)=O (configuration not stated) | 3.11%
CCC(C)C(=O)Nc1ccc2oc(=O)n(CCN(C)C)c2c1 (configuration not stated) | -1.79%
CCOC(=O)[C@]12CCCN(Cc3cccs3)C[C@H]1CN(C(C)=O)C2 | -1.84%
CC(C)N1CC(C(=O)N2CCc3c(nc(CC4CC4)[nH]c3=O)C2)CC1=O (configuration not stated) | -2.23%
Cn1nc2c(cc1=O)CN(Cc1nc(-c3ccccn3)no1)CC2 | -9%
CC(C)c1ncc(CN2CCC(CO)C2)cn1 (configuration not stated) | -4.22%
Cc1nc(C(NC(=O)C2CCCC2)c2ccccc2F)no1 (configuration not stated) | -9.04%
CN1CCCC2(CCN(C(=O)Cn3ncc4ccccc4c3=O)C2)C1=O (configuration not stated) | 9.09%
Cc1cc(C(=O)N2CCN(Cn3cc(Cl)cn3)CC2)c(C)o1 | -5.19%
Cn1cc(N2C[C@@H]3CN(Cc4ccoc4)C[C@@H]3C2=O)cn1 | -2.46%
Cn1cc2c(n1)C(CNC(=O)Cc1ccsc1)OCC2 (configuration not stated) | -6.77%
O=C(C1CCC1)N1C[C@@H]2CCN(c3cccnc3)C[C@@H]2C1 | 30%
CN(C)c1ncccc1NC(=O)COCC1CC1 | -9.25%
CCOCC1CCN(C(=O)C(c2cccc(F)c2)N(C)C)CC1 (configuration not stated) | 27.9%

SMILES | cytotoxicity at 70.5 h
Cc1nc(C(C)C)sc1C(=O)N1CCC(N2CCSCC2)CC1 | -12.7%
CS(=O)(=O)CCCNC(=O)Nc1sc2ccccc2c1Cl | -4.03%
CCS(=O)(=O)N1CC[C@H]2OCC[C@@]2(c2nnc(C)o2)C1 | -7.55%
O=C(NCCC(O)c1ccccc1)c1ccco1 (configuration not stated) | -8.79%
Cc1nc(C)c(CNCC2CCCn3ccnc32)s1 (configuration not stated) | 15.5%
COc1cc2nc(NCc3ccc(C)nc3)nc(N)c2cc1OC | -5.25%
COC(=O)CCNC(=O)c1ccoc1CN1c2ccccc2CC1C (configuration not stated) | -1.15%
O=C(c1cc[nH]n1)N1CCc2ccc(S(=O)(=O)N3CCOCC3)cc2C1 | 3.21%
Cc1ccccc1Oc1ncccc1CNC(=O)Cn1cccnc1=O | 3.17%
Cc1nc2c(c(=O)[nH]1)CCN(C(=O)c1[nH]nc3c1CC(C)CC3)C2 (configuration not stated) | 2.4%
CCN1CCN(C)C2(CCN(C(=O)CC(F)(F)F)CC2)C1=O | 0.29%
CCC(C(=O)N(Cc1ccccn1)C1CCCCC1)n1cccn1 (configuration not stated) | 22.3%
CN1CCOC(CNC(=O)Cc2coc(-c3ccccc3)n2)C1 (configuration not stated) | -13.1%
CN(CCO)Cc1cc(Cl)ccc1OCC(O)CN1CCCCCC1 (configuration not stated) | -14.1%
CC(C)CN(C(=O)COc1ccc(C(N)=O)cc1)C1CCN(C)CC1 | -4.39%
CCCS(=O)(=O)NC(=O)c1ccc(-n2nc(C)cc2C)cc1 | -6.42%
Cc1cnn(C2CCCN(C(=O)CCCOc3cccc(F)c3)C2)c1 (configuration not stated) | 0.97%
COC[C@H]1CC[C@H]2[C@H](CCN2S(=O)(=O)Cc2ccccc2)O1 | -4.05%
CCOC(=O)C1(NC(=O)CCNc2cc(C)ccc2OC)CCCCC1 | -4.71%

SMILES | cytotoxicity at 70.5 h
COc1ccc(C(=O)N2CCC(Nc3cccnn3)CC2)cn1 | 13.7%
O=c1c2cccnc2cnn1CC(O)c1ccc(Br)cc1 (configuration not stated) | 12%
COC[C@@]12CC[C@@H](N3CCOCC3)C[C@H]1CCN(c1ccc(Cl)cn1)C2 | -6.42%
CCN(Cc1ccco1)C(=O)c1cc(OC)c2c(c1)OCCO2 | 5.2%
N#Cc1ccc(C(=O)N2CC[C@H]3[C@@H]2CCC(=O)N3c2cccnc2)cc1 | -6.84%
CC(C)C(=O)N1CCN(CCOc2cccc(C#N)c2)CC1 | -5.29%
CC(C)C1CN(C(=O)c2cn3ccccc3n2)CCCN1CC1CC1 (configuration not stated) | -10.1%
O=C(c1ccc(Cl)cn1)N1CCC(COCc2ccccc2)C1 (configuration not stated) | 15.8%
CCc1nnc(CN(CC)C(=O)C2CC(=O)N(CC)C2)o1 (configuration not stated) | -1.3%
COc1cc(CNCC(O)c2ccc(F)c(F)c2)cc2c1OCO2 (configuration not stated) | 29.9%
CCN(C)C(=O)c1cccc(C(=O)N(C)Cc2cccc(O)c2)c1 | 25.8%
Cn1cc(CNC2CCc3c(ccc(=O)n3Cc3cccnc3)C2)cn1 (configuration not stated) | -14.4%
OCCN1CCC(c2cncc(-c3cccc(Cl)c3)n2)CC1 | -3.96%
CCCn1ncc(C(=O)NCCc2[nH]nc3c2CCCC3)c1C | -5.62%
OC(CNc1ccncn1)CN1CCCCCC1 (configuration not stated) | -7.06%
COCc1noc(CN2C[C@H](C3CC3)[C@@H](N(C)C)C2)n1 | -8.41%
O=C(NCc1cc(F)ccc1F)Nc1ccn(CC(F)F)n1 | 0.0811%
Cc1nn(-c2ccccc2)c(C)c1CC(=O)NC1CC(=O)N(C)C1 (configuration not stated) | -7.27%
Cc1cc(N2CCC(C(=O)O)(n3ccc(C(C)C)n3)CC2)nc(N)n1 | 6.37%
